{"source": "patent US20110230659A1", "about": "“CYCLOBUTYL PURINE DERIVATIVE, ANGIOGENESIS PROMOTING AGENT, LUMEN FORMATION PROMOTING AGENT, NEUROCYTE GROWTH PROMOTING AGENT, AND DRUG” (NATIONAL UNIVERSITY CORPORATION KAGAWA UNIVERSITY, priority 2008, published 2011)", "test_system": "JNK", "assay": "JNK activation (phosphorylation) immunoblot in HUVEC", "assay_type": "cell-based, human", "settings": "100 μmol/l; 0 to 60 minutes", "description": "First, to a HuMedia-EB2 medium (Kurabo) to which 2 v/v % inactivated fetal bovine serum (FBS) had been added, 2-Cl—C.OXT-A was added so that its concentration became 100 μmol/l. Thus, a medium was prepared. Using the medium, human umbilical vein endothelial cells (HUVEC) were cultured for predetermined periods (0, 10, 20, 30, 45, and 60 minutes).\nAfter the culture, cells were collected. The collected cells were lysed by adding a cell lysis buffer (SDS-lysis buffer) thereto, and heat-denatured at 95° C. for 5 minutes. The solubilized protein in an amount corresponding to 5 v/v % of the heat-denatured cell lysate was subjected to electrophoresis using 10% SDS-polyacrylamide gel, whereby the solubilized protein was transferred onto a nitrocellulose membrane (Amersham Biosciences). […]\nThe enzymes were visualized with SuperSignal (registered trademark) West Pico Chemiluminescent Substrate (Pierce), and detected by being exposed to RX—U X-ray film (FUJIFILM Corporation). From the detected bands, the respective phosphoenzymes and total enzymes were quantified using an NIH image software. Furthermore, the relative value (−fold) of each phosphoenzyme was calculated by substituting the measured value of the phosphoenzyme into the following equation (III)."}
{"molecule": "Nc1nc(Cl)nc2c1ncn2C1CC(CO)C1CO", "note": "(stereo not drawn) [2-Cl—C.OXT-A, 6-amino-2-chloro-9-[trans-trans-2,3-bis(hydroxymethyl)cyclobutyl]purine]", "values": [{"measurement": "amount of pJNK", "result": "not changed"}]}
